# Measured values as given in US12552772B2, “2-pyrazole anilines and related analogs for inhibiting YAP/TAZ-TEAD” (KATHOLIEKE UNIVERSITEIT LEUVEN, priority 2021, dated 2026).
# Test system: YAP/TAZ-TEAD transcription
# Assay: Reporter gene assay for measuring the inhibition of YAP/TAZ-TEAD transcription (TEAD-responsive element luciferase reporter in Hek293T cells)
# Assay type: cell-based
# Conditions: Homo sapiens, HEK-293T, 24 hours incubation
# Protocol: Hek293T cells are cultured in DMEM supplemented with 10% fetal bovine serum, Sodium pyruvate, Sodium bicarbonate, L-glutamine. The cells are harvested and transiently transfected with TEAD-responsive element luciferase reporter. Transfected cells are plated in 384-wells plate containing pre-diluted compounds. After 24 hours incubation at 37° C./5% CO2, assay plates were cooled down to RT and levelled to an equal volume per well, prior to the addition of 25 uL luciferase substrate SteadyLite (Perkin Elmer)/well. The plate was shaken for 10 min at 600 rpm, centrifuged for 1 min at 500 rpm and measured with an Envision reader (PerkinElmer). The amount of relative light units produced by the TEAD reporter is used to calculated percent of inhibition.
# The percent of reporter inhibition was calculated in the presence of a positive control inhibitor (100% inhibition) versus a condition with the presence of the vehicle basal activity of the reporter (0% inhibition). The ability of a test compound to inhibit this activity was determined as: Percentage inhibition=[1−((RLU determined in the presence of vehicle−RLU determined for sample with test compound present) divided by (RLU determined in the presence of vehicle−RLU determined for sample with positive control inhibitor))]*100
# The activities of the example compounds tested are depicted in the table below. The activity ranges A, B and C refer to EC50 values in the reporter gene assay as described as follows: “A”: EC50<1 μM; “B”: 1 μM s EC50≤20 μM and “C”: EC50>20 μM, NT=not tested.
row,Structure (SMILES),EC50 [nM]
1,"c1ccc(Cn2ccc(-c3cccc(-c4cncnc4)c3)n2)cc1 [compound 016, 5-(3-(1-benzyl-1H-pyrazol-3-yl)phenyl)pyrimidine]",1000 to 20000
2,"C=CC(=O)NCc1c(F)cc(-c2ccc(C(F)(F)F)cc2)cc1-c1ccn(C)n1 [compound 192, N-((3-fluoro-5-(1-methyl-1H-pyrazol-3-yl)-4′-(trifluoromethyl)-[1,1′-biphenyl]-4-yl)methyl)acrylamide]",< 1000
3,"O=C(O)c1ccncc1Cn1ccc(-c2cccc(-c3ccccc3)c2)n1 [compound 042, 3-((3-([1,1′-biphenyl]-3-yl)-1H-pyrazol-1-yl)methyl)isonicotinic acid]",> 20000
4,"C=CC(=O)NCc1cnc(-c2ccc(F)cc2)cc1-n1cc(C(F)(F)F)cn1 [compound 248, N-((6-(4-fluorophenyl)-4-(4-(trifluoromethyl)-1H-pyrazol-1-yl)pyridin-3-yl)methyl)acrylamide]",< 1000
5,"CNS(=O)(=O)CCNc1ccc(-c2ccc(Cl)cc2)cc1-c1ccn(Cc2cccnc2)n1 [compound 106, 2-((4′-chloro-3-(1-(pyridin-3-ylmethyl)-1H-pyrazol-3-yl)-[1,1′-biphenyl]-4-yl)amino)-N-methylethane-1-sulfonamide]",< 1000
6,"CNS(=O)(=O)CCNc1ccc(-c2cccc(OC(F)(F)F)c2)cc1-c1ccn(C)n1 [compound 129, N-methyl-2-((3-(1-methyl-1H-pyrazol-3-yl)-3′-(trifluoromethoxy)-[1,1′-biphenyl]-4-yl)amino)ethane-1-sulfonamide]",1000 to 20000
7,"C=CC(=O)NCc1ccc(-c2ccc(F)cc2)cc1-c1ccn(CC(F)(F)F)n1 [compound 160, N-((4′-fluoro-3-(1-(2,2,2-trifluoroethyl)-1H-pyrazol-3-yl)-[1,1′-biphenyl]-4-yl)methyl)acrylamide]",< 1000
8,"C=CC(=O)NCc1ccc([C@H]2CC[C@H](C(F)(F)F)CC2)cc1-c1ccn(C)n1 [compound 178, trans-N-(2-(1-methyl-1H-pyrazol-3-yl)-4-(4-(trifluoromethyl)cyclohexyl)benzyl)acrylamide]",< 1000
9,"O=C(O)CCNc1cc(-c2ccccc2)cc(-c2ccn(Cc3cccnc3)n2)c1 [compound 061, 3-((5-(1-(pyridin-3-ylmethyl)-1H-pyrazol-3-yl)-[1,1′-biphenyl]-3-yl)amino)propanoic acid]",> 20000
10,"CCC(=O)NCc1cc(-c2ccccc2)cc(-c2ccn(C)n2)c1 [compound 138, N-((5-(1-methyl-1H-pyrazol-3-yl)-[1,1′-biphenyl]-3-yl)methyl)propionamide]",1000 to 20000
11,CNS(=O)(=O)CCNc1ccc(-c2cccc(C(F)(F)F)c2)cc1-c1ccn(C)n1 [compound 120],< 1000
12,"C=CC(=O)NCc1ccc(-c2ccc(C(F)(F)F)cn2)cc1-c1ccn(C)n1 [compound 147, N-(2-(1-methyl-1H-pyrazol-3-yl)-4-(5-(trifluoromethyl)pyridin-2-yl)benzyl)acrylamide]",< 1000
13,"Cn1ccc(-c2cc(-c3ccccc3)ccc2NCCS(N)(=O)=O)n1 [compound 058, 2-((3-(1-methyl-1H-pyrazol-3-yl)-[1,1′-biphenyl]-4-yl)amino)ethane-1-sulfonamide]",< 1000
14,"C=CC(=O)NCc1ccc(-c2ccc(F)cc2)cc1-c1ccn(CC2COC2)n1 [compound 159, N-((4′-fluoro-3-(1-(oxetan-3-ylmethyl)-1H-pyrazol-3-yl)-[1,1′-biphenyl]-4-yl)methyl)acrylamide]",< 1000
15,"CCC(=O)N1CCC(c2ccc(-c3ccc(F)cc3)cc2-c2ccn(C)n2)C1 (stereo not drawn) [compound 259, 1-(3-(4′-fluoro-3-(1-methyl-1H-pyrazol-3-yl)-[1,1′-biphenyl]-4-yl)pyrrolidin-1-yl)propan-1-one]",1000 to 20000
16,"CNS(=O)(=O)CCNc1ccc(-c2ccc(C(F)(F)F)cc2)cc1-c1ccn(Cc2cccc(F)c2)n1 [compound 103, 2-((3-(1-(3-fluorobenzyl)-1H-pyrazol-3-yl)-4′-(trifluoromethyl)-[1,1′-biphenyl]-4-yl)amino)-N-methylethane-1-sulfonamide]",< 1000
17,"CNS(=O)(=O)CCNc1ccc(-c2ccccn2)cc1-c1ccn(Cc2cccnc2)n1 [compound 114, N-methyl-2-((4-(pyridin-2-yl)-2-(1-(pyridin-3-ylmethyl)-1H-pyrazol-3-yl)phenyl)amino)ethane-1-sulfonamide]",1000 to 20000
18,"CNc1cc(Cn2ccc(-c3cccc(-c4ccccc4)c3)n2)ccn1 [compound 036, 4-((3-([1,1′-biphenyl]-3-yl)-1H-pyrazol-1-yl)methyl)-N-methylpyridin-2-amine]",1000 to 20000

row,Structure (SMILES),EC50 [nM]
1,"CNS(=O)(=O)CCNc1cnc(-c2ccc(C(F)(F)F)cc2)cc1-c1ccn(C(F)F)n1 [compound 130, 2-((4-(1-(difluoromethyl)-1H-pyrazol-3-yl)-6-(4-(trifluoromethyl)phenyl)pyridin-3-yl)amino)-N-methylethane-1-sulfonamide]",< 1000
2,"C=CC(=O)NCc1ccc(-c2ccc(F)cc2)cc1-n1ccnn1 [compound 191, N-((4′-fluoro-3-(1H-1,2,3-triazol-1-yl)-[1,1′-biphenyl]-4-yl)methyl)acrylamide]",< 1000
3,"C=CC(=O)NCc1cnc(-c2ccc(F)cc2)cc1-n1nnnc1C [compound 250, N-((6-(4-fluorophenyl)-4-(5-methyl-1H-tetrazol-1-yl)pyridin-3-yl)methyl)acrylamide]",> 20000
4,"C=CC(=O)NCc1ccc(-c2ccc(F)cc2)nc1-c1nn[nH]n1 [compound 200, N-((6-(4-fluorophenyl)-2-(2H-tetrazol-5-yl)pyridin-3-yl)methyl)acrylamide]",> 20000
5,"CN(C)S(=O)(=O)CCNc1ccc(-c2ccccc2)cc1-c1ccn(Cc2cccnc2)n1 [compound 053, N,N-dimethyl-2-((3-(1-(pyridin-3-ylmethyl)-1H-pyrazol-3-yl)-[1,1′-biphenyl]-4-yl)amino)ethane-1-sulfonamide]",< 1000
6,"C=CC(=O)NCc1ccc(-c2ccc(F)cc2)cc1-c1cnn(C(F)F)n1 [compound 186, N-((3-(2-(difluoromethyl)-2H-1,2,3-triazol-4-yl)-4′-fluoro-[1,1′-biphenyl]-4-yl)methyl)acrylamide]",< 1000
7,"C=CC(=O)NCc1ccc(-c2ccc(C(F)(F)F)nc2)cc1-c1ccn(C)n1 [compound 148, N-(2-(1-methyl-1H-pyrazol-3-yl)-4-(6-(trifluoromethyl)pyridin-3-yl)benzyl)acrylamide]",< 1000
8,"C=CC(=O)NCc1ccc(-c2ccc(F)cc2)cc1-c1nnnn1C [compound 189, N-((4′-fluoro-3-(1-methyl-1H-tetrazol-5-yl)-[1,1′-biphenyl]-4-yl)methyl)acrylamide]",1000 to 20000
9,"c1ccc(-c2ccc(NC3CCCOC3)c(-c3ccn(Cc4cccnc4)n3)c2)cc1 (stereo not drawn) [compound 070, N-(3-(1-(pyridin-3-ylmethyl)-1H-pyrazol-3-yl)-[1,1′-biphenyl]-4-yl)tetrahydro-2H-pyran-3-amine]",< 1000
10,"c1ccc(Nc2cccc(-c3ccn(Cc4cccnc4)n3)c2)cc1 [compound 045, N-phenyl-3-(1-(pyridin-3-ylmethyl)-1H-pyrazol-3-yl)aniline]",1000 to 20000
11,"CNS(=O)(=O)CCC(=O)Nc1ccc(-c2ccccc2)cc1-c1ccn(Cc2cccnc2)n1 [compound 079, 3-(N-methylsulfamoyl)-N-(3-(1-(pyridin-3-ylmethyl)-1H-pyrazol-3-yl)-[1,1′-biphenyl]-4-yl)propanamide]",1000 to 20000
12,"c1ccc(-c2cccc(-c3ccn(Cc4cccnc4)n3)c2)cc1 [compound 014, 3-((3-([1,1′-biphenyl]-3-yl)-1H-pyrazol-1-yl)methyl)pyridine]",1000 to 20000
13,"C=CC(=O)Nc1cncc(-c2cccc(-c3ccn(Cc4ccc(C(F)(F)F)cc4)n3)c2)c1 [compound 011, N-(5-(3-(1-(4-(trifluoromethyl)benzyl)-1H-pyrazol-3-yl)phenyl)pyridin-3-yl)acrylamide]",1000 to 20000
14,"CCC(=O)NCc1cnc(-c2ccc(F)cc2)cc1-c1cc2n(n1)CCCC2 [compound 232, N-((6-(4-fluorophenyl)-4-(4,5,6,7-tetrahydropyrazolo[1,5-a]pyridin-2-yl)pyridin-3-yl)methyl)propionamide]",< 1000
15,"N#Cc1cncc(-c2cccc(-c3ccn(Cc4ccccc4)n3)c2)c1 [compound 005, 5-(3-(1-benzyl-1H-pyrazol-3-yl)phenyl)nicotinonitrile]",1000 to 20000
16,"O=C(O)c1cncc(Cn2ccc(-c3cccc(-c4ccccc4)c3)n2)c1 [compound 040, 5-((3-([1,1′-biphenyl]-3-yl)-1H-pyrazol-1-yl)methyl)nicotinic acid]",> 20000
17,"C=CC(=O)NCc1[nH]c(=O)c(-c2ccc(F)cc2)cc1-c1ccn(C)n1 [Cpd. No. 234, N-((5-(4-fluorophenyl)-3-(1-methyl-1H-pyrazol-3-yl)-6-oxo-1,6-dihydropyridin-2-yl)methyl)acrylamide]",< 1000
18,"CCC(=O)NCc1cnc(-c2ccc(F)cc2)cc1-n1nnc(C)n1 [compound 251, N-((6-(4-fluorophenyl)-4-(5-methyl-2H-tetrazol-2-yl)pyridin-3-yl)methyl)propionamide]",> 20000
